Test results reported in patent publication US6228985A, “Derivatives of aminobenzoic and aminobiphenylcarboxylic acids useful as anti-cancer agents” (Schering Corporation, priority 1998, dated 2001).

Tests used:
[1] = biological target: uPAR; conditions: cited from earlier work
[2] = biological target: T1, uPAR (Homo sapiens, UniProt Q03405); assay: cell-based, competition radioligand binding assay (specific binding of c-[125I-Tyr24]-ATFp to DU-145 cells); conditions: radioligand c-[125I-Tyr24]-ATFp 3 nM (1.5 Kd), 4° C. for 90 min, duplicate tubes, 2-3 independent experiments
T1 construct: these cells express high levels of unoccupied uPA receptors; endogenous in cells; host or cells: DU-145 human prostate cancer cells (intact cells, harvested with trypsin/EDTA)
Experimental: The following assay procedure, which is a cell-based, competition radioligand binding assay, was carried out to determine the activity of the foregoing compounds as uPAR antagonists.
Radioligand Preparation. The minimal receptor-binding sequence of uPA was determined by Apella et al., J. Biol. Chem. 262:4437-4440 (1987), utilizing non-radioactive peptides as competition for a larger uPA radioligand. Our assay was developed and characterized using an iodinated version of the minimal receptor binding sequence of human uPA (residues 12-32, Ala^19). The 21-amino acid peptide (cyclized), referred to herein as "c-ATFp", was synthesized and iodinated as follows: 10 ug of c-ATFp was iodinated with 1 mCi Na^125 I, using the Chloramine-T method (Iodo-Beads, Pierce Chemical Co.); iodinated peptide was separated from unincorporated iodine with Sep-Pak C18 cartridges (Millipore), and the C18-bound peptide was eluted with acetonitrile. This procedure routinely yielded a radioiodinated c-ATFp (c-[^125 I-Tyr^24 ]-ATFp) with specific activity of 105 Ci/mmol: [drawing 101]
Determination of Radioligand Binding. DU-145, a human prostate cancer cell line, was selected for radioligand binding assays because these cells express high levels of unoccupied uPA receptors (approximately 500,000 receptors/cell). Subconfluent, 2 day cultures of DU-145 cells were prepared for radioligand binding assays by harvesting monolayers with trypsin/EDTA. The cells were washed one time with serum-free Dulbecco's Modified Eagle Medium (DMEM), and suspended at a cell density of 250,000 cells/ml in ice-cold DME containing 0.1% bovine serum albumin. Test compounds were solubilized in DMSO at 2 mg/ml and subsequently diluted in phosphate buffered saline to prepare stock concentrations of 200 ug/ml, 20 ug/ml, 2 ug/ml, 0.2 ug/ml, and 0.02 ug/ml. The binding reactions were initiated by addition of 1.0 ml cell suspension to microcentrifuge tubes containing 10 ul of: the indicated test compound solutions, or appropriately diluted DMSO controls, and c-[^25 ]-Tyr^24 ]-ATFp, such that the final concentration of radioligand was 3 nM (1.5 Kd). To control for specific binding, parallel reaction tubes were prepared containing 1,000-fold excess unlabeled c-ATFp. Reaction tubes were incubated with rocking at 4° C. for 90 min. Binding was terminated by 4° C. centrifugation at 800× g for 1 min in a refrigerated microcentrifuge. Unbound radioligand was removed by aspirating the reaction medium, adding fresh, ice-cold DMEM, 0.1% bovine serum albumin to the pelleted cells, and then quickly re-centrifuging and aspirating the wash from the cell pellet. The washing steps were completed in 2-4 minutes by this method, depending on the number of tubes in each experiment. Tips of microcentrifuge tubes containing the cell pellets were snipped and transferred to counting tubes. Radioactivity bound to the cells was determined in a gamma counter.
Specific binding of the radioligand was calculated as the difference between the amount of c-[^125 I-Tyr^24 ]-ATFp bound in the absence (total binding) and presence (non-specific binding) of the unlabeled c-ATFp. The efficacy of test compounds for inhibiting specific binding of c-[^125 I-Tyr^24 ]-ATFp was determined by plotting a graph of specific binding (y-axis) as a function of test compound concentration (x-axis). The concentration of test compound required to inhibit 50% of the specific binding (lC50) was determined from the plot. The IC50 may be directly converted mathematically to Ki, which is a measure of the receptor binding affinity of the compounds under the defined assay conditions. Test compounds were evaluated in duplicate tubes, in 2-3 independent binding experiments.

[3] = test system: uPA:uPAR interaction; conditions: cited from earlier work

T1 sequence (Q03405 23-335): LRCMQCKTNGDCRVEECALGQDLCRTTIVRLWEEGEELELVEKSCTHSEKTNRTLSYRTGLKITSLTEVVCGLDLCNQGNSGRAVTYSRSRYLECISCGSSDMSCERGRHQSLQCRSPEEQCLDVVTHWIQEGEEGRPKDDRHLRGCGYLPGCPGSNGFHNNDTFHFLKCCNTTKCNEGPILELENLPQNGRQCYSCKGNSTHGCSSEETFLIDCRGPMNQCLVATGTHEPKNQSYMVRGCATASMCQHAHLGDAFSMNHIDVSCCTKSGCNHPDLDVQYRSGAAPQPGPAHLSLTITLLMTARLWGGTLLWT

| Compound | IC50 [2] [nM] | other results |
| --- | --- | --- |
| uPA,12-32: The critical domain alone (uPA,12-32); residues 12-32 of the EGF-like domain of uPA (DCLNGGTCVSNKYFSNIHWCN; UniProt P00749 32-52, looked up, fragment) | – | Kd ([1]; critical domain alone (uPA,12-32), read-out: affinity): 40 nM; affinity relative to intact ATF (fold less) ([1]; less than intact ATF): about 100 fold |
| O=C(O)C[C@H](NC(=O)c1ccc(-c2ccc(NC(=O)[C@H](Cc3c[nH]c4ccccc34)NC(=O)OCC3c4ccccc4-c4ccccc43)cc2)cc1)C(=O)O [Example 9-C] | 300 | – |
| O=C(N[C@@H](Cc1c[nH]c2ccccc12)C(=O)Nc1ccc(-c2ccc(C(=O)N[C@@H](Cc3c[nH]c4ccccc34)C(=O)O)cc2)cc1)OCC1c2ccccc2-c2ccccc21 [Example 8-E] | 310 | – |
| O=C(Cc1c[nH]c2ccccc12)Nc1ccc(-c2ccc(C(=O)N[C@@H](Cc3ccccc3)C(=O)O)cc2)cc1 [Example 8-A] | 20 | – |
| CC(=O)N[C@@H](Cc1c[nH]c2ccccc12)C(=O)Nc1ccc(-c2cccc(C(=O)N[C@@H](Cc3ccccc3)C(=O)O)c2)cc1 [Example 8-O] | 167 | – |
| CC(=O)N[C@@H](CCC(N)=O)C(=O)Nc1ccc(-c2ccc(C(=O)N[C@@H](Cc3ccccc3)C(=O)O)cc2)cc1 [Example 9-S] | 6 | – |
| CC(=O)N[C@@H](Cc1c[nH]c2ccccc12)C(=O)Nc1cccc(-c2ccc(C(=O)N[C@@H](Cc3ccccc3)C(=O)O)cc2)c1 [Example 8-N] | 0.8 | – |
| Cc1ccc(C(=O)Nc2ccc(S(=O)(=O)O)c3cc(S(=O)(=O)O)cc(S(=O)(=O)O)c23)cc1NC(=O)c1cccc(NC(=O)Nc2cccc(C(=O)Nc3cc(C(=O)Nc4ccc(S(=O)(=O)O)c5cc(S(=O)(=O)O)cc(S(=O)(=O)O)c45)ccc3C)c2)c1 [suramin] | – | inhibition of the uPA:uPAR interaction [3]: inhibit the uPA:uPAR interaction |
| CC(=O)N[C@@H](Cc1c[nH]c2ccccc12)C(=O)Nc1ccc(-c2ccc(C(=O)N[C@@H](CC(=O)O)C(=O)O)cc2)cc1 [Example 9-H] | 60 | – |
| CC(=O)N[C@H](Cc1c[nH]c2ccccc12)C(=O)Nc1ccc(-c2ccc(C(=O)N[C@@H](CC(=O)O)C(=O)O)cc2)cc1 [Example 9-I] | 17 | – |
| CC(=O)N[C@H](Cc1c[nH]c2ccccc12)C(=O)Nc1ccc(-c2ccc(C(=O)NCCC(=O)O)cc2)cc1 [Example 8-G] | 18 | – |
| CC(=O)N[C@@H](Cc1c[nH]c2ccccc12)C(=O)Nc1ccc(-c2ccc(C(=O)O)cc2)cc1 [Example 8-R] | 1500 | – |
| CC(=O)N[C@H](Cc1c[nH]c2ccccc12)C(=O)Nc1ccc(-c2ccc(C(=O)N[C@@H](Cc3ccccc3)C(=O)O)cc2)cc1 [Example 8-K] | 4 | – |
| CC(=O)N[C@@H](Cc1ccccc1)C(=O)Nc1ccc(-c2ccc(C(=O)N[C@@H](Cc3ccccc3)C(=O)O)cc2)cc1 [Example 8-Q] | 18 | – |
| CC(=O)N[C@@H](Cc1c[nH]c2ccccc12)C(=O)NCc1ccccc1-c1ccc(C(=O)N[C@@H](Cc2ccccc2)C(=O)O)cc1 [Example 8-P] | 70 | – |
| CC(=O)N[C@@H](Cc1c[nH]c2ccccc12)C(=O)Nc1ccc(-c2ccc(C(N)=O)cc2)cc1 [Example 12-Y] | 91 | – |
| CC(=O)N[C@@H](Cc1c[nH]c2ccccc12)C(=O)Nc1ccc(-c2ccc(C(=O)N[C@@H](Cc3ccc(O)cc3)C(=O)O)cc2)cc1 [Example 9-T] | 3 | – |
| CC(=O)N[C@@H](Cc1c[nH]c2ccccc12)C(=O)Nc1ccc(-c2ccc(C(=O)N[C@@H](CC(=O)O)C(N)=O)cc2)cc1 [Example 10-V] | 1.3 | – |
| CC(=O)N[C@@H](Cc1c[nH]c2ccccc12)C(=O)Nc1ccc(-c2ccc(C(=O)NCCC(=O)O)cc2)cc1 [Example 8-F] | 0.9 | – |
| CC(=O)N[C@@H](Cc1c[nH]c2ccccc12)C(=O)Nc1ccc(-c2ccc(C(=O)NCCc3ccccc3)cc2)cc1 [Example 11-W] | 355 | – |
| CC(=O)N[C@@H](Cc1c[nH]c2ccccc12)C(=O)Nc1ccc(-c2ccc(C(=O)N[C@@H](Cc3ccccc3)C(=O)O)cc2)cc1 [Example 8-J] | 1.8 | – |
| O=C(N[C@@H](Cc1c[nH]c2ccccc12)C(=O)Nc1ccc(-c2ccc(C(=O)N[C@@H](Cc3ccccc3)C(=O)O)cc2)cc1)OCC1c2ccccc2-c2ccccc21 [Example 8-D] | 190 | – |
| CC(=O)N[C@@H](Cc1c[nH]c2ccccc12)C(=O)Nc1ccc(C(=O)N[C@@H](Cc2ccccc2)C(=O)O)cc1 [Example 8-M] | 28 | – |
| CC(=O)N[C@@H](Cc1c[nH]c2ccccc12)C(=O)Nc1ccc(-c2ccc(C(=O)N[C@H](Cc3ccccc3)C(=O)O)cc2)cc1 [Example 8-L] | 8 | – |
| CC(=O)N[C@@H](Cc1c[nH]c2ccccc12)C(=O)Nc1ccc(-c2ccc(C(=O)N[C@@H](Cc3ccccc3)C(N)=O)cc2)cc1 [Example 10-U] | 44 | – |
